Results on 33 molecules are retold here after paper PMC4048319, “Design and Synthesis of High Affinity Inhibitors of Plasmodium falciparum and Plasmodium vivax N-Myristoyltransferases Directed by Ligand Efficiency Dependent Lipophilicity (LELP)” (Journal of Medicinal Chemistry, 2014).

SMILES strings stand for the structures. pKi: −log10 of the molar value.

A word on the pKi: it is −log10 of the Ki, conventionally taken in molar units. The term EC50 denotes the midpoint of the concentration-response curve. A high value points to lower potency in that assay. By aqueous solubility is commonly meant the dissolved amount per volume that the medium holds.

The target in data set [1] is T1, PfNMT (Plasmodium falciparum, UniProt Q9U419).
T1 sequence (Q9U419 1-410): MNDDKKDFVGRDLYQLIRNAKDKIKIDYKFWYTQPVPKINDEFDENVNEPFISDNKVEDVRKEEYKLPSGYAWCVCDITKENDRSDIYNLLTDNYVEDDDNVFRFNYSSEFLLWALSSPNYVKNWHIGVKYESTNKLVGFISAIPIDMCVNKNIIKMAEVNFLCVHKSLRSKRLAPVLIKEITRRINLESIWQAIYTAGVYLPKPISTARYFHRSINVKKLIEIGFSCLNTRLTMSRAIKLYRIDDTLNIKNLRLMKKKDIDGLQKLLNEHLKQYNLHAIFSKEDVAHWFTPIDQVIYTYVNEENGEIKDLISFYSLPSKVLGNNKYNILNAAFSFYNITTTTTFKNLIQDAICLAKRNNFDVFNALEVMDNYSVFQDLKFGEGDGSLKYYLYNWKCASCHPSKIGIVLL
Description: LELP (cLogP/LE, PfNMT LE).

The target of data set [2] is T1, PfNMT. Description: NMT enzyme inhibition, CPM fluorescence assay (PfNMT). The format is biochemical. The settings on record: for pKi: Ki calculated from IC50 by Cheng-Prusoff, mean of two or more determinations, read-out: PfNMT Ki. The procedure: (§1) All IC50 determinations were carried out using a 7-diethylamino-3-(4′-maleimidylphenyl)-4-methylcoumarin (CPM) fluorescence assay, as described previously for HsNMT1,[45] PvNMT,[46] and PfNMT.[21]
(§2) IC50 values are the mean value of two or more determinations, and standard deviation is within 20% of the IC50 unless otherwise specified. Data were elaborated using Microsoft Office Excel 2010, and IC50 values were determined using GraFit 7.0 (Erithacus Software Ltd., U.K.) by nonlinear regression fitting, which were then quoted as Ki as defined below.
(§3) The Michaelis constant (Km) was 3.64 μM and the substrate concentration was 4.00 μM, resulting in a Ki of 0.008 μM. Km values were calculated as described previously.[45]

A further data set in a line: Aqueous solubility. It is filed as physicochemical. The settings on record: data not shown.
The target in another data set is T2, PvNMT (Plasmodium vivax, UniProt A5K1A2).
T2 sequence (A5K1A2 1-410): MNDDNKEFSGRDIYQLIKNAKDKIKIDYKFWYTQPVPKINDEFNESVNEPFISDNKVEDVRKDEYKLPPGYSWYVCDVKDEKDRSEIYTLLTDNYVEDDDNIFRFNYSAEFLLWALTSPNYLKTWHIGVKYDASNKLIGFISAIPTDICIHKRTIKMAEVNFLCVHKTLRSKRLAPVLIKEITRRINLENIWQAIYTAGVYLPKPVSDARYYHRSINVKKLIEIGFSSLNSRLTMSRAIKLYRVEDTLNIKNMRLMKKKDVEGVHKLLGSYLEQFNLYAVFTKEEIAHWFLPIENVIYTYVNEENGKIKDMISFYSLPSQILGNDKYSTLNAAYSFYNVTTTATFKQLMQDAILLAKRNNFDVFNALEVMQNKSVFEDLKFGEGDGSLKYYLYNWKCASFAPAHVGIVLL
Description: NMT enzyme inhibition, CPM fluorescence assay (PvNMT). It is filed as biochemical. The following applies: relative to 34c. On the procedure: as §1, §2, §3

The target in a further data set is T3, HsNMT1 (Homo sapiens, UniProt P30419).
T3 sequence (P30419 1-496): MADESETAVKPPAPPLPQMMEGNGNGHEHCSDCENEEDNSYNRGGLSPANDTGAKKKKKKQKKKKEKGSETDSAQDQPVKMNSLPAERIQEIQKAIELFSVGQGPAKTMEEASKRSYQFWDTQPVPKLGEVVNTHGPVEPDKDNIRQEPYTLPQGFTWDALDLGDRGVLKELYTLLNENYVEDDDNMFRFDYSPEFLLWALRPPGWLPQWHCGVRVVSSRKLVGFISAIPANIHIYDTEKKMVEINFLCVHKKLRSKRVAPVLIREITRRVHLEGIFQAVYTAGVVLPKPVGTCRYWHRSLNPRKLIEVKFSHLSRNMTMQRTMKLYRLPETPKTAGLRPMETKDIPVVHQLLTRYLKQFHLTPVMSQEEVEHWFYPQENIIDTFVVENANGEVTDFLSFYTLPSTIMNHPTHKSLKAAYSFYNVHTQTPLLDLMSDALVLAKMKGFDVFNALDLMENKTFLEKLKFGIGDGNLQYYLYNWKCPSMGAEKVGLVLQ
The data set is described as follows: NMT enzyme inhibition, CPM fluorescence assay (HsNMT1). The following applies: ratio of Ki. It is filed as biochemical. The procedure:
as §1, §2, §3

The next data set is described as follows: in vitro. The format is cell-based. The following applies: human.
The subject of another data set is HepG2 cells. The data set is described as follows: in vitro. It is filed as cell-based.
Another data set relates to P. falciparum Dd2. The data set is described as follows: Plasmodium falciparum [3H]hypoxanthine incorporation assay (Dd2). The format is cell-based. The following applies: drug-resistant vs drug-sensitive line. On the procedure: This assay was performed by Dr. Sergio Wittlin and Dr. Christian Scheurer at the Swiss Tropical and Public Health Institute and is a modified version of the original hypoxanthine assay published by Desjardins et al.:[47]
Serial drug dilutions were prepared with a multichannel pipet, transferring 100 μL in a 2-fold serial dilution. Wells of rows A served as controls without drug. An amount of 100 μL of infected blood (parasitemia of 0.3%, 2.5% hematocrit) was added to all wells with a multipipette. The control wells (A9–A12) received uninfected blood of 2.5% hematocrit. The plates were incubated in an incubation chamber at 37 °C in an atmosphere containing 93% N2, 4% CO2, 3% O2. After 48 h, an amount of 50 μL of [^3H]hypoxanthine (=0.5 μCi) solution was added to each well of the plate. The plates were incubated for another 24 h. The plates were then harvested with a Betaplate cell harvester (Wallac, Zurich, Switzerland). The dried filters were inserted into a plastic foil with 10 mL of scintillation fluid and counted in a Betaplate liquid scintillation counter (Wallac, Zurich, Switzerland). The results were recorded as counts per minute (cpm) per well at each drug concentration.
Data were analyzed using a graphic program (e.g., Excel) and expressed as percentage of the untreated controls. The 50% inhibitory concentration (IC50) value was evaluated by logit regression analysis.

On the set-up of data set [3]: method as in PMID 24451586. The settings on record: previously reported; cited from earlier work.
Another data set has as its system rodent malaria model. Also on record: method as in PMID 24451586. The settings on record: previously shown; cited from earlier work.
The next data set addresses PbNMT (Plasmodium berghei, UniProt A0A509ARF4). The data set is described as follows: PbNMT enzyme affinity. It is filed as biochemical. The procedure: In addition, 34c was tested against a Plasmodium berghei (Pb) liver stage model to determine whether NMT is likely to be a viable drug target for clearance of liver stage parasites. […] This provides evidence that NMT inhibition is also a promising mechanism for targeting liver stage parasites and may therefore be an effective pathway for the disruption of multiple parasite life stages.

The nature of data set [4]: cLogP determined with ChemAxon.

PbNMT, sequence (A0A509ARF4 entry or part of it): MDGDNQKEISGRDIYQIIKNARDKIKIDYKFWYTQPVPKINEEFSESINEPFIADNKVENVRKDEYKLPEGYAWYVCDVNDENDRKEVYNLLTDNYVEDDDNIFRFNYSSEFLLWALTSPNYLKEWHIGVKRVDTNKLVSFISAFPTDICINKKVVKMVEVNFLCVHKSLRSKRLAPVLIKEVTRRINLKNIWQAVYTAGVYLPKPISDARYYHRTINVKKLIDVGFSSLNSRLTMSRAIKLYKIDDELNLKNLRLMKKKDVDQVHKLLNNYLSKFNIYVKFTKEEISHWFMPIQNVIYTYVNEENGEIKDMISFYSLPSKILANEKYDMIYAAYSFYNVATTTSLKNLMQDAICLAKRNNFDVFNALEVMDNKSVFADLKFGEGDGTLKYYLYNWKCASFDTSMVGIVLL

Turning to `O=C(OCCc1ccccc1)c1sc2ccccc2c1OC1CCNCC1` [4a], the LELP at PfNMT [1] stood at 14.3.
Turning to `COc1cccc(CCOC(=O)c2sc3ccccc3c2OC2CCNCC2)c1` [4b, 3-Methoxyphenethyl 3-(Piperidin-4-yloxy)benzo[b]thiophene-2-carboxylate], the “improvement in enzyme affinity (PfNMT) relative to 1” value at PfNMT [2] worked out at 6 fold. This molecule also had an LELP at PfNMT [1] of 13.2.
With `COc1cc(CCOC(=O)c2sc3ccccc3c2OC2CCNCC2)cc(OC)c1` [4c], the LELP at PfNMT [1] was found to be 12.4.
`O=C(OCCCc1ccccc1)c1sc2ccccc2c1OC1CCNCC1` [4d]: the LELP on PfNMT [1] worked out at 18.6.
Same read-out and setting: in the case of `O=C(OCCOc1ccccc1)c1sc2ccccc2c1OC1CCNCC1` [4e] it was 14.1.
For `O=C(NCCc1ccccc1)c1sc2ccccc2c1OC1CCNCC1` [6a], at PfNMT [2], the negative-log Ki (pKi) was less than 5.00.
Same read-out and setting: under `O=C(NCCCc1ccccc1)c1sc2ccccc2c1OC1CCNCC1` [6b] stands less than 5.00; under `O=C(NCCOc1ccccc1)c1sc2ccccc2c1OC1CCNCC1` [6c], less than 5.00.
The molecule `c1ccc(Cc2noc(-c3sc4ccccc4c3OC3CCNCC3)n2)cc1` [9a, 3-Benzyl-5-(3-(piperidin-4-yloxy)benzo[b]thiophen-2-yl)-1,2,4-oxadiazole] registered an LELP at PfNMT [1] of 12.4.
Take `c1ccc(CCc2noc(-c3sc4ccccc4c3OC3CCNCC3)n2)cc1` [9b, 3-Phenethyl-5-(3-(piperidin-4-yloxy)benzo[b]thiophen-2-yl)-1,2,4-oxadiazole]: the LELP at PfNMT [1] was determined as 15.2.
Turning to `COc1cccc(Cc2noc(-c3sc4ccccc4c3OC3CCNCC3)n2)c1` [9c], at PfNMT [1], the LELP came to 12.5.
In turn, `Clc1cccc(Cc2noc(-c3sc4ccccc4c3OC3CCNCC3)n2)c1` [9d] gave an LELP on PfNMT [1] of 15.3.
As to `COc1cc(Cc2noc(-c3sc4ccccc4c3OC3CCNCC3)n2)cc(OC)c1` [9e], the LELP at PfNMT [1] amounted to 11.8. Moreover, the solubility result in the data set “Aqueous solubility” is “very low”.
The molecule `c1ccc(Cc2nc(-c3sc4ccccc4c3OC3CCNCC3)no2)cc1` [14a] displayed an LELP on PfNMT [1] of 12.8.
Still for that read-out and setting: in the case of `COc1cccc(Cc2nc(-c3sc4ccccc4c3OC3CCNCC3)no2)c1` [14b, 5-(3-Methoxybenzyl)-3-(3-(piperidin-4-yloxy)benzo[b]thiophen-2-yl)-1,2,4-oxadiazole] it was 12.4.
In turn, `COc1cc(Cc2nc(-c3sc4ccccc4c3OC3CCNCC3)no2)cc(OC)c1` [14c] returned an LELP on PfNMT [1] of 11.8.
Still for that read-out and setting: in the case of `c1ccc(Cc2nnc(-c3sc4ccccc4c3OC3CCNCC3)o2)cc1` [20a] it was 9.5; in that of `COc1cccc(Cc2nnc(-c3sc4ccccc4c3OC3CCNCC3)o2)c1` [20b], 9.2.
Still for that read-out and setting: under `CC(c1ccccc1)c1nnc(-c2sc3ccccc3c2OC2CCNCC2)o1` (stereo not drawn) [23a, 2-(1-Phenylethyl)-5-(3-(piperidin-4-yloxy)benzo[b]thiophen-2-yl)-1,3,4-oxadiazole] stands 12.5.
Still for that read-out and setting: under `CC(C)(c1ccccc1)c1nnc(-c2sc3ccccc3c2OC2CCNCC2)o1` [23b] stands 14.1.
With `c1ccc(C2(c3nnc(-c4sc5ccccc5c4OC4CCNCC4)o3)CC2)cc1` [23c], the LELP at PfNMT [1] is given as 12.2.
Same read-out and setting: in the case of `FC(F)(c1ccccc1)c1nnc(-c2sc3ccccc3c2OC2CCNCC2)o1` [23d] it was 13.8; in that of `c1ccc(C(c2ccccc2)c2nnc(-c3sc4ccccc4c3OC3CCNCC3)o2)cc1` [23e], 19.4.
Still for that read-out and setting: under `COC(c1ccccc1)c1nnc(-c2sc3ccccc3c2OC2CCNCC2)o1` (stereo not drawn) [23f] stands 10.5.
As to `OC(c1ccccc1)c1nnc(-c2sc3ccccc3c2OC2CCNCC2)o1` (stereo not drawn) [23g], at PfNMT [1], the LELP is given as 7.9.
Molecule `Cc1n[nH]c(C)c1Cc1nnc(-c2sc3ccccc3c2OC2CCNCC2)o1` [34a] gave an LELP on PfNMT [1] of 5.6. Moreover, the “lower binding affinity to PvNMT than 34c” value at PvNMT was roughly 40 fold.
As for `Cc1noc(C)c1Cc1nnc(-c2sc3ccccc3c2OC2CCNCC2)o1` [34b], on PfNMT [1], the LELP is given as 6.1. Moreover, the “selectivity between PfNMT and HsNMT” value at HsNMT1 was 8- to 9 fold.
Consider `Cc1nn(C)c(C)c1Cc1nnc(-c2sc3ccccc3c2OC2CCNCC2)o1` [34c, 2-(3-(Piperidin-4-yloxy)benzo[b]thiophen-2-yl)-5-((1,3,5-trimethyl-1H-pyrazol-4-yl)methyl)-1,3,4-oxadiazole], for which, at PfNMT [2], the “improvement in enzyme affinity (PfNMT) relative to 1” value was found to be 100 fold. This molecule had an EC50 at 72 h in the data set “in vitro” of 12.3 µM. Moreover, in the data set with HepG2 cells (human, 72 h), the “HepG2 LD50” value was 12 300 nM and the “HepG2 LD50 (approximate)” value was roughly 10 µM. Also, the “selectivity between parasitic and HepG2 cell lines” value in the data set on HepG2 cells (up to) is recorded as roughly 40 fold. For the same molecule, the LELP on PfNMT [1] is recorded as 5.5. At HsNMT1, the “selectivity between PfNMT and HsNMT” value was 8- to 9 fold. The “loss of potency between NF54 and Dd2” value in the data set with P. falciparum Dd2 is “less than 4 fold”. Moreover, the aqueous solubility in data set [3] is given as greater than 8 mM. Also, the parasitemia in vivo entry in the data set on rodent malaria model is on record as “reduce parasitemia in vivo”. On PbNMT, this molecule had a pKi of 7.85. Besides, in [4], the “reduction in lipophilicity relative to 1” value turned out to be 100 fold.
Molecule `Cc1n[nH]c(C)c1CCc1nnc(-c2sc3ccccc3c2OC2CCNCC2)o1` [35a] registered an LELP at PfNMT [1] of 7.8.
On the same count and under the same terms, in the case of `Cc1noc(C)c1CCc1nnc(-c2sc3ccccc3c2OC2CCNCC2)o1` [35b] it was 7.9; in that of `Cc1nn(C)c(C)c1CCc1nnc(-c2sc3ccccc3c2OC2CCNCC2)o1` [35c], 8.2; in that of `c1ccc(Cc2n[nH]c(-c3sc4ccccc4c3OC3CCNCC3)n2)cc1` [compound 18], 9.5.
Take `O=C1C(O)=C([C@H]2CC[C@H](c3ccc(Cl)cc3)CC2)C(=O)c2ccccc21` [compound 37, atovaquone, reference compound]: the “HepG2 LD50” value with HepG2 cells (human, 72 h) is on record as >10 000 nM.
